This is an account of results in patent US8263642B2, “Antimicrobial compounds and methods of use thereof” (Vanderbilt University, priority 2008, dated 2012).

Assay [1] relates to HssRS-dependent hrtAB expression. The assay is described as follows: Luminescence-based assay to monitor HssRS-dependent hrtAB expression (phrtABlux reporter), Newman. It counts as cell-based, Staphylococcus aureus. As to conditions: Newman; for activation at 0.0825 µM: Staphylococcus aureus, NEWMAN, read-out: % Lumi, luminescence induced by the compound compared to the heme control (82.5 nM) in the same plate; for Luminescence: raw luminescence value obtained in a luminometer. Here is the method:
(§1) With reference to Table 1, “Luminescence” refers to the raw luminescence value obtained in a luminomter. “Control (82.5 nm)” refers to the luminescence value obtained from heme at 82.5 nM as a positive control in the same plate as the experimental. “% lum” is the percentage of luminescence induced by the compound as compared to the heme control in the same plate. […] All of these assays are described in the application. […] “N/T” indicates the test was not performed.
A hrtAB-driven expression system was created in the pXen vector system (Xenogen) (Francis, K. P., D. Joh, C. Bellinger-Kawahara, M. J. Hawkinson, T. F. Purchio, and P. R. Contag. 2000. Monitoring bioluminescent Staphylococcus aureus infections in living mice using a novel luxABCDE construct. Infect Immun 68:3594-3600). This vector contains a promoterless luxCDABE operon from Photorabdus luminescens which produces blue green light when expressed. The luxCDABE encodes for a fatty acid reductase (LuxCDE) that produces a long chain fatty aldehyde which, when combined with cellular flavin mononucleotide, is oxidized by a luciferase (LuxAB) to produce light. Therefore, this system is useful in that it bypasses the need for substrate addition and is capable of generating light in the absence of any added reagents. Furthermore, the luminescent signal produced by the combined activities of LuxAB and LuxCDE is of sufficient intensity to be visualized in unmanipulated intact bacteria.
To establish an assay that measures HssRS-dependent expression of luxCDABE, the promoter for hrtAB upstream of luxCDABE was cloned and transformed this vector (phrtABlux) into wildtype and ΔhssR S. aureus. A promoterless vector (plux) and a plasmid containing luxCDABE under the control of a constitutive promoter (psrtAlux) (Mazmanian, S. K., G. Liu, H. Ton-That, and O. Schneewind. 1999. “Staphylococcus aureus sortase, an enzyme that anchors surface proteins to the cell wall.” Science 285:760-763) were included as negative and positive controls, respectively. Initially, wildtype S. aureus harboring either plux, phrtABlux, or psrtAlux were plated on solid medium that either lacked heme or contained 4 μM heme. Only wildtype S. aureus containing psrtAlux produced light on solid media regardless of the presence or absence of heme. […] Light was not produced by bacteria containing plux in either condition.
To adapt this system for a HTS to measure ligand recognition by HssRS, luminescence of wildtype and ΔhssR harboring the above listed plasmids in liquid media with or without heme was measured. […] Taken together, these experiments establish a whole cell […] assay that can identify small molecule modifiers of HssRS. This screen, in some aspects, can identify molecules that can be used as molecular probes in structure-function analyses to determine the mechanism by which S. aureus sense host heme.
Upon staphylococcal exposure to heme, HssRS senses heme and activates expression of hrtAB. This process can be measured using a reporter assay that employs a vector encoding the light-producing luxCDABE operon under the control of the hrtAB promoter. This assay results in whole cell luminescence upon HssRS-dependent activation of hrtAB, forming the foundation for the development of an assay suitable for high-throughput screens for small molecule activators of HssRS.
To develop an automated HTS format, S. aureus wildtype and ΔhssR harboring reporter constructs (psrtAlux, phrtAlux, plux) can be grown for 15 hours at 37° C. in tryptic soy broth (TSB) containing 10 μg/ml chloramphenicol. The addition of chloramphenicol is useful to ensure that the staphylococci propagate the reporter plasmid upon cell division. Following growth, bacterial cultures can be normalized and 2×10^7 cells (approximately 2 μl) can be added to individual wells of black walled, clear bottomed, 96-well plates. […]

Assay [2] has as its system hrtAB-driven expression of the xylE reporter gene. The assay is described as follows: XylE reporter assay (hrtAB promoter-xylE), Newman. Format: cell-based, Staphylococcus aureus. Conditions: for XylE (0.5): level of XylE induction at 0.5 uM of the compound; for XylE (5.0): level of XylE induction at 5.0 uM of the compound; for XylE (50.0): level of XylE induction at 50.0 uM of the compound; for XylE (0.05): level of XylE induction at 0.05 uM of the compound. The procedure: as §1
Compounds that activate HssRS-driven hrtAB expression in the luciferase-based screen can be subjected to two separate counter screens to confirm these compounds as active hits. First, compounds of interest can be tested for their ability to activate expression of hrtAB in the XylE expression assay described hereinbelow. This is an in vitro assay that measures hrtAB-driven expression of the xylE reporter gene. The XylE-based reporter assay utilizes slightly more manipulations than the primary luciferase-based screen. […] It should be appreciated that a shortcoming of this counter screen is that it measures reporter gene expression, which is a similar activity as that measured in the primary assay. To address this shortcoming, compounds that are positive in both XylE- and luciferase-based assays can be subjected to a second counter screen as described hereinbelow.
S. aureus strains harboring the appropriate reporter construct were inoculated into 500 μl of TSB containing 10 μg/ml chloramphenicol in 1.5 ml tubes. Cultures were grown O/N at 37° C. with shaking. Bacteria were pelleted by centrifugation and spent medium was aspirated. The pellet was washed once with 500 μl of 20 mM potassium phosphate, pH 7.6, and resuspended in 150 μl of 100 mM potassium phosphate buffer, pH 8.0, 10% (v/v) acetone, 25 μg/ml lysostaphin. After 20 minute incubation at 37° C. and 5 minute incubation on ice, samples were centrifuged at 20,000 g for 30 minutes at 4° C. 1-10 μl of supernatant was added to a 96-well plate and 200 μl of 100 mM potassium phosphate, pH 8.0, 0.2 mM pyrocatechol was added to each well. Formation of 2-hydroxymuconic semialdehyde was tracked by measuring the absorbance at 375 nm every minute for 30 minutes on a Varian MP 50 microplate reader. Protein concentration in samples was determined by BCA (Pierce). One unit of specific activity of XylE in a sample is defined as the formation of 1 nmol of 2-hydroxymuconic semialdehyde per minute per milligram of cellular protein at 30° C. (Chien, Y., Manna, A. C., Projan, S. J., and Cheung, A. L. 1999, “SarA, a global regulator of virulence determinants in Staphylococcus aureus, binds to a conserved motif essential for sar-dependent gene regulation. J. Biol. Chem. 274, 37169-37176).
The hrtAB intergenic region was fused to the xylE structural gene by PCR-SOE. In the first reaction, primer P1B:[…] and P2B:[…] were used to amplify the hrtAB intergenic region from S. aureus strain Newman genomic DNA. In the second PCR reaction primers P3B:[…] and P4B:[…] were used to amplify the xylE structural gene using pALC1639 template DNA (provided by Dr. Ambrose Cheung) and PCR product purified using a Qiagen gel extraction kit. For the PCRSOE reaction, a 1:300 dilution of purified reaction 1 and reaction 2 PCR products was mixed and amplified by PCR using […]. This yielded a construct in which the hrtAB intergenic region is fused to the xylE gene in such a manner that the position of the start codon for xylE corresponds to the position of the start codon for […] in the hrtAB locus. The hrtAB promoter-xylE fusion DNA was then subcloned into pOS1. As a control we also constructed a promoterless xylE vector. The xylE gene was amplified from pACL1639 template DNA using the primers P1C:[…] and P2C:[…] and then cloned into the pOS1 vector.

For `O=C(COc1nsnc1N1CCOCC1)Nc1ccccc1`, in assay [1], the activation at 0.0825 µM amounted to 207% and the Luminescence is reported as 1594. Besides, in assay [2], the “XylE (0.5)” value worked out at 0.05, the “XylE (5.0)” value came out at 0.02 and the “XylE (50.0)” value is 0.03.

As for `O=C(Nc1ccc(NC(=O)c2ccccc2)c(Cl)c1)c1ccccc1`, in assay [1], the activation at 0.0825 µM was 102% and the Luminescence turned out to be 291. Moreover, in assay [2], the “XylE (0.05)” value came to 0.06, the “XylE (0.5)” value is on record as 0.05, the “XylE (5.0)” value turned out to be 0.07 and the “XylE (50.0)” value was 0.02.

Take `C=CCc1ccccc1Oc1ccc(C(F)(F)F)cn1`: in assay [1], the activation at 0.0825 µM was 27.5% and the Luminescence amounted to 1474. Further, in assay [2], the “XylE (0.05)” value amounted to 0.08, the “XylE (0.5)” value turned out to be 0.02, the “XylE (5.0)” value was 0.07 and the “XylE (50.0)” value stood at 0.09.

Take `O=[N+]([O-])c1ccc(O)c(C2NN=C(Cc3ccccc3)S2)c1` (centres unmarked): in assay [1], the activation at 0.0825 µM came to 871% and the Luminescence came out at 2805. Also, in assay [2], the “XylE (0.05)” value is recorded as 0.02, the “XylE (0.5)” value was 0.05, the “XylE (5.0)” value is reported as 1 and the “XylE (50.0)” value is reported as 1.

Consider `Cc1ccc(CNC(=O)c2ccc(CSCc3ccccc3Cl)o2)cc1`, for which, in assay [1], the activation at 0.0825 µM amounted to 192% and the Luminescence amounted to 1603. Further, in assay [2], the “XylE (0.5)” value is 0.08, the “XylE (5.0)” value worked out at 0.7 and the “XylE (50.0)” value came to 0.8.

Compound `COc1ccc(C2CC(C3C(=O)c4ccccc4C3=O)=NN2)cc1` (centres unmarked) showed a Luminescence in assay [1] of 1888. In assay [2], the “XylE (0.5)” value is on record as 0.08, the “XylE (5.0)” value stood at 5 and the “XylE (50.0)” value came out at 0.09.

As for `Cc1cccc(NC(=S)N/N=C/c2cc(Br)ccc2O)c1`, in assay [1], the activation at 0.0825 µM turned out to be 161% and the Luminescence worked out at 589. Moreover, in assay [2], the “XylE (0.05)” value is reported as 0.09, the “XylE (0.5)” value is reported as 0.2, the “XylE (5.0)” value is 0 and the “XylE (50.0)” value stood at 0.

In assay [1], `Brc1ccc2[nH]cc(-c3nc(-c4ccccc4)c(-c4ccccc4)[nH]3)c2c1` showed a Luminescence of 2549. Also, in assay [2], the “XylE (0.05)” value is given as 0.4, the “XylE (0.5)” value was 2, the “XylE (5.0)” value is recorded as 1 and the “XylE (50.0)” value came to 1.

For the compound `O=C(NC(=S)Nc1ccc(Oc2ccccc2)cc1)c1cccs1`, in assay [1], the activation at 0.0825 µM was found to be 415% and the Luminescence amounted to 1774. Also, in assay [2], the “XylE (0.5)” value is on record as 0.01, the “XylE (5.0)” value is reported as 0.09 and the “XylE (50.0)” value is 0.01.

Regarding `CCN(CC)S(=O)(=O)c1cc(C(=O)NC2CCCCCC2)ccc1Cl`, in assay [1], the activation at 0.0825 µM came out at 759% and the Luminescence came to 2080. In assay [2], the “XylE (0.05)” value came out at 1, the “XylE (0.5)” value is 1, the “XylE (5.0)” value turned out to be 1 and the “XylE (50.0)” value amounted to 0.05.

With `Oc1ccc(Nc2nc(-c3ccc(Cl)cc3)nc3ccccc23)cc1`, the Luminescence in assay [1] turned out to be 3096. In addition, in assay [2], the “XylE (0.05)” value was 1, the “XylE (0.5)” value was determined as 1, the “XylE (5.0)” value was determined as 1 and the “XylE (50.0)” value was found to be 1.

Take `CCOC(=O)c1c(NC(=O)C2CCCCC2)sc(C(=O)Nc2ccc(C)c(Cl)c2)c1C`: the Luminescence in assay [1] stood at 2374. Besides, in assay [2], the “XylE (0.05)” value came to 8, the “XylE (0.5)” value came to 2, the “XylE (5.0)” value was 1 and the “XylE (50.0)” value stood at 1.

For the compound `COc1ccc(/N=c2\nc(-c3ccccc3)n(-c3ccc(C)cc3)s2)cc1`, in assay [1], the activation at 0.0825 µM amounted to 266% and the Luminescence is recorded as 757. Also, in assay [2], the “XylE (0.05)” value is given as 0.02, the “XylE (0.5)” value is listed as 0.04, the “XylE (5.0)” value is recorded as 0 and the “XylE (50.0)” value turned out to be 0.

`CC(C)c1ccc(NS(=O)(=O)c2ccc3[nH]c(-c4ccccc4)nc3c2)cc1` showed a Luminescence in assay [1] of 2146. For the same compound, in assay [2], the “XylE (0.05)” value was determined as 1, the “XylE (0.5)” value was found to be 1, the “XylE (5.0)” value is listed as 9 and the “XylE (50.0)” value was determined as 1.

In the case of `COC(=O)C1=C(C)NC(=O)NC1c1cn(-c2ccccc2)nc1-c1ccc(OC)c(OC)c1` (centres unmarked), in assay [1], the activation at 0.0825 µM amounted to 866% and the Luminescence came out at 1854. For the same compound, in assay [2], the “XylE (0.5)” value is listed as 0.04, the “XylE (5.0)” value was determined as 0.03 and the “XylE (50.0)” value was found to be 0.05.

With `c1cc(-c2ccc3nsnc3c2)c2cc3nsnc3cc2c1`, in assay [1], the activation at 0.0825 µM stood at 347% and the Luminescence is on record as 1630. Also, in assay [2], the “XylE (0.5)” value came out at 0.06, the “XylE (5.0)” value worked out at 0 and the “XylE (50.0)” value was 0.9.

Consider `O=C(Nc1ccc(C(F)(F)F)cc1)c1cc(S(=O)(=O)NCc2ccc(F)cc2)ccc1F`, for which, in assay [1], the activation at 0.0825 µM is 493% and the Luminescence was 1710. Further, in assay [2], the “XylE (0.5)” value came out at 0, the “XylE (5.0)” value is listed as 0.03 and the “XylE (50.0)” value was 0.03.

In turn, `O=C(Nc1ccc(-c2csc(Nc3cccc(Cl)c3)n2)cc1)c1ccccc1` registered a Luminescence in assay [1] of 3586. In assay [2], the “XylE (0.05)” value is recorded as 1, the “XylE (0.5)” value is listed as 0.07, the “XylE (5.0)” value is 1 and the “XylE (50.0)” value is on record as 0.08.
